PubChem BioAssay (NCI)
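Cultured in 96-well plates, cells were exposed to test compound for 48 hours across five concentrations. At the TGI there is no net growth.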

Assays:
Experiment in all cases: DTP human tumour cell line panel, 48 h
SK-MEL-28 melanoma = test system: SK-MEL-28 melanoma
SR leukemia = test system: SR leukemia
CCRF-CEM leukemia = test system: CCRF-CEM leukemia
HCT-116 colon = test system: HCT-116 colon
TK-10 renal = test system: TK-10 renal
UACC-257 melanoma = test system: UACC-257 melanoma
MCF7 breast = test system: MCF7 breast
OVCAR-5 ovarian = test system: OVCAR-5 ovarian
HS 578T breast = test system: HS 578T breast
HCT-15 colon = test system: HCT-15 colon
PC-3 prostate = test system: PC-3 prostate
KM12 colon = test system: KM12 colon
MDA-N = test system: MDA-N
NCI/ADR-RES ovarian = test system: NCI/ADR-RES ovarian
NCI-H23 lung = test system: NCI-H23 lung
NCI-H460 lung = test system: NCI-H460 lung
MDA-MB-231 breast = test system: MDA-MB-231 breast
DU-145 prostate = test system: DU-145 prostate
MDA-MB-435 = test system: MDA-MB-435
ACHN renal = test system: ACHN renal
CAKI-1 renal = test system: CAKI-1 renal
SK-OV-3 ovarian = test system: SK-OV-3 ovarian
RXF 393 renal = test system: RXF 393 renal
OVCAR-3 ovarian = test system: OVCAR-3 ovarian
LOX IMVI melanoma = test system: LOX IMVI melanoma
EKVX NSCLC = test system: EKVX NSCLC
SF-268 CNS = test system: SF-268 CNS
SK-MEL-5 melanoma = test system: SK-MEL-5 melanoma
786-0 renal = test system: 786-0 renal
RPMI-8226 leukemia = test system: RPMI-8226 leukemia
MOLT-4 leukemia = test system: MOLT-4 leukemia
K-562 leukemia = test system: K-562 leukemia
NCI-H226 lung = test system: NCI-H226 lung
HT29 colon = test system: HT29 colon
M14 melanoma = test system: M14 melanoma
T-47D breast = test system: T-47D breast
SNB-19 CNS = test system: SNB-19 CNS
BT-549 breast = test system: BT-549 breast
A498 renal = test system: A498 renal
UO-31 renal = test system: UO-31 renal
HOP-62 NSCLC = test system: HOP-62 NSCLC
SNB-75 CNS = test system: SNB-75 CNS
SN12C renal = test system: SN12C renal
SK-MEL-2 melanoma = test system: SK-MEL-2 melanoma
HL-60(TB) leukemia = test system: HL-60(TB) leukemia
SW-620 colon = test system: SW-620 colon
COLO 205 colon = test system: COLO 205 colon
SF-295 CNS = test system: SF-295 CNS
U251 CNS = test system: U251 CNS
SF-539 CNS = test system: SF-539 CNS
IGROV1 ovarian = test system: IGROV1 ovarian
OVCAR-8 ovarian = test system: OVCAR-8 ovarian
UACC-62 melanoma = test system: UACC-62 melanoma
MALME-3M melanoma = test system: MALME-3M melanoma

CC1CCCc2c(C#N)c(N)nc(-c3ccc(Cl)cc3)c21 (centres undefined)
TGI (SK-MEL-28 melanoma): > 100 µM | TGI (SR leukemia): 72.8 µM | TGI (CCRF-CEM leukemia): > 100 µM | TGI (HCT-116 colon): > 100 µM | TGI (TK-10 renal): > 100 µM | TGI (UACC-257 melanoma): 79.9 µM | TGI (MCF7 breast): 84.5 µM | TGI (OVCAR-5 ovarian): 63.3 µM | TGI (HS 578T breast): > 100 µM | TGI (HCT-15 colon): > 100 µM | TGI (PC-3 prostate): 42.9 µM | TGI (KM12 colon): > 100 µM | TGI (MDA-N): 93.9 µM | TGI (NCI/ADR-RES ovarian): > 100 µM | TGI (NCI-H23 lung): 93.7 µM | TGI (NCI-H460 lung): 59 µM | TGI (MDA-MB-231 breast): 81.8 µM | TGI (DU-145 prostate): > 100 µM | TGI (MDA-MB-435): > 100 µM | TGI (ACHN renal): 38.4 µM | TGI (CAKI-1 renal): > 100 µM | TGI (SK-OV-3 ovarian): > 100 µM | TGI (RXF 393 renal): 21.5 µM | TGI (OVCAR-3 ovarian): 44.4 µM | TGI (LOX IMVI melanoma): 36.3 µM | TGI (EKVX NSCLC): > 100 µM | TGI (SF-268 CNS): > 100 µM | TGI (SK-MEL-5 melanoma): 35.9 µM | TGI (786-0 renal): 38.2 µM | TGI (RPMI-8226 leukemia): 39.2 µM | TGI (MOLT-4 leukemia): 43.2 µM | TGI (K-562 leukemia): > 100 µM | TGI (NCI-H226 lung): 43.3 µM | TGI (HT29 colon): 44.4 µM | TGI (M14 melanoma): 66.4 µM | TGI (T-47D breast): 74.5 µM | TGI (SNB-19 CNS): > 100 µM | TGI (BT-549 breast): > 100 µM | TGI (A498 renal): > 100 µM | TGI (UO-31 renal): 79.7 µM | TGI (HOP-62 NSCLC): 24.8 µM | TGI (SNB-75 CNS): 81.6 µM | TGI (SN12C renal): 38.2 µM | TGI (SK-MEL-2 melanoma): 44.4 µM | TGI (HL-60(TB) leukemia): 83.3 µM | TGI (SW-620 colon): > 100 µM | TGI (COLO 205 colon): 67.7 µM | TGI (SF-295 CNS): 49.2 µM | TGI (U251 CNS): > 100 µM | TGI (SF-539 CNS): 33 µM | TGI (IGROV1 ovarian): 56.8 µM | TGI (OVCAR-8 ovarian): > 100 µM | TGI (UACC-62 melanoma): 38.2 µM | TGI (MALME-3M melanoma): 85.1 µM
